Our source for the MIC values is US4971963A, “Cephem compounds, and use” (Takeda Chemical Industries, Ltd., priority 1988, dated 1990).

≈ marks a conversion by molar mass, not a printed value. Read-outs that look alike come from different tables or passages of the source. Bounds are passed on as bounds.

What all share (assay): Minimal inhibitory concentration, agar dilution method
Common to all, as to format: cell-based
In general terms: Agar dilution tests growth on a series of plates holding different concentrations.

The test system of one test is S. marcescens IFO12648. Conditions: Serratia marcescens, Trypticase soy agar, about 10^8 CFU/ml, 37° C., 18 hours. As for the experimental part: (§1) The Minimal Inhibitory Concentrations of the tested compounds were determined according to the agar dilution method. Namely, 1.0 ml each of aqueous solution of the test compounds diluted by serial dilutions was poured into test petri dishes, subsequently 9.0 ml each of Trypticase soy agar was poured into the dishes and mixed.
(§2) On each of the mixed agar plates, one loopful of bacterial suspension (about 10^8 CFU/ml) of test microorganism was streaked.
(§3) After the incubation at 37° C. for 18 hours, the lowest concentration of the tested compounds in the medium which caused apparently complete inhibition of growth of the test microorganism was taken to be minimal inhibitory concentration.

The test system of another test is E. coli O-111. Conditions: Escherichia coli, O111, Trypticase soy agar, about 10^8 CFU/ml, 37° C., 18 hours. As for the experimental part: as §1, §2, §3
The test system of a further test is K. pneumoniae DT. Conditions: Klebsiella pneumoniae, Trypticase soy agar, about 10^8 CFU/ml, 37° C., 18 hours. The protocol: as §1, §2, §3
The next test concerns E. cloacae IFO12937. Conditions: Enterobacter cloacae, Trypticase soy agar, about 10^8 CFU/ml, 37° C., 18 hours. The protocol:
as §1, §2, §3

The next test relates to S. aureus 1840. The protocol:
as §1, §2, §3

The subject of a further test is E. coli NIHJ JC-2. Conditions: Escherichia coli, NIHJJC2, Trypticase soy agar, about 10^8 CFU/ml, 37° C., 18 hours. The protocol: as §1, §2, §3
The next test concerns P. vulgaris IFO3988. Conditions: Proteus vulgaris, Trypticase soy agar, about 10^8 CFU/ml, 37° C., 18 hours. As for the experimental part:
as §1, §2, §3

For a further test, the system named is S. aureus J-108. Conditions: Staphylococcus aureus, J108, Trypticase soy agar, about 10^8 CFU/ml, 37° C., 18 hours. As for the experimental part: as §1, §2, §3
A further test has as its system E. coli T 7. Conditions: Escherichia coli, T7, Trypticase soy agar, about 10^8 CFU/ml, 37° C., 18 hours. As for the experimental part:
as §1, §2, §3

In a further test the test system is M. morganii IFO3168. Conditions: Morganella morganii, Trypticase soy agar, about 10^8 CFU/ml, 37° C., 18 hours. As for the experimental part: as §1, §2, §3
In another test the test system is S. aureus N-241. Conditions: Staphylococcus aureus, N241, Trypticase soy agar, about 10^8 CFU/ml, 37° C., 18 hours. As for the experimental part: as §1, §2, §3
The next test relates to P. aeruginosa IFO3455. Conditions: Pseudomonas aeruginosa, Trypticase soy agar, about 10^8 CFU/ml, 37° C., 18 hours. The protocol:
as §1, §2, §3

In the next test the test system is P. mirabilis IFO3849. Conditions: Proteus mirabilis, Trypticase soy agar, about 10^8 CFU/ml, 37° C., 18 hours. As for the experimental part:
as §1, §2, §3

In another test the test system is S. aureus FDA 209P. Conditions: Staphylococcus aureus, FDA209P. The protocol: as §1, §2, §3
The test system of another test is S. aureus 308 A-1. Conditions: Staphylococcus aureus, 308A1, Trypticase soy agar, about 10^8 CFU/ml, 37° C., 18 hours. As for the experimental part:
as §1, §2, §3

For another test, the system named is C. freundii IFO12681. Conditions: Citrobacter freundii, Trypticase soy agar, about 10^8 CFU/ml, 37° C., 18 hours. As for the experimental part: as §1, §2, §3
The mark [1] stands for this setting: Staphylococcus aureus, S. aureus 1840, Trypticase soy agar, about 10^8 CFU/ml, 37° C., 18 hours, read-out: MIC.
Where [2] appears, read: S. aureus FDA 209P, Trypticase soy agar, about 10^8 CFU/ml, 37° C., 18 hours, read-out: MIC.

On to `CO/N=C(\C(=O)N[C@@H]1C(=O)N2C(C(=O)O)=C(CSc3nnnn3CCCNC(=N)N)CS[C@H]12)c1csc(N)n1` [Example 8, 7β-[2-(2-Aminothiazol-4-yl)-(Z)-2-methoxyiminoacetamido]-3-[[1-(3-guanidinopropyl)-1H-tetrazol-5-yl]thiomethyl]-3-cephem-4-carboxylic acid], for which the MIC (commonly the lowest concentration that inhibits growth of the organism) is ≤ 0.1 µg/mL with S. marcescens IFO12648; ≤ 0.1 µg/mL in the test on E. coli O-111; ≤ 0.1 µg/mL in the test with K. pneumoniae DT; 0.39 µg/mL (≈ 0.654 µM) against E. cloacae IFO12937; 0.78 µg/mL (≈ 1.31 µM) in the test on S. aureus 1840 (setting [1]); ≤ 0.1 µg/mL against E. coli NIHJ JC-2. For the same molecule, the MIC with P. vulgaris IFO3988 is ≤ 0.1 µg/mL; in the test on S. aureus J-108, 6.25 µg/mL (≈ 10.5 µM); in the test on E. coli T 7, 0.39 µg/mL (≈ 0.654 µM); in the test on M. morganii IFO3168, ≤ 0.1 µg/mL; against S. aureus N-241, 12.5 µg/mL (≈ 20.9 µM); with P. aeruginosa IFO3455, 6.25 µg/mL (≈ 10.5 µM). Also, the MIC is 0.39 µg/mL (≈ 0.654 µM) in the test on P. mirabilis IFO3849, 0.78 µg/mL (≈ 1.31 µM) against S. aureus FDA 209P (18 h), 0.78 µg/mL (≈ 1.31 µM) with S. aureus 308 A-1 and ≤ 0.1 µg/mL in the test with C. freundii IFO12681.

On to `N=C(N)CSCCn1nnnc1SCC1=C(C(=O)O)N2C(=O)[C@@H](NC(=O)/C(=N\O)c3csc(N)n3)[C@H]2SC1` [Example 44], for which the minimal inhibitory concentration (MIC) in the test on S. marcescens IFO12648 was 0.39 µg/mL (≈ 0.65 µM); against E. coli O-111 it was ≤ 0.1 µg/mL; with K. pneumoniae DT, 0.2 µg/mL (≈ 0.333 µM); against E. cloacae IFO12937 it was 3.13 µg/mL (≈ 5.22 µM); in the test with S. aureus 1840 (setting [1]) it was 0.2 µg/mL (≈ 0.333 µM); in the test on E. coli NIHJ JC-2 it was 0.2 µg/mL (≈ 0.333 µM). The MIC with P. vulgaris IFO3988 was 0.39 µg/mL (≈ 0.65 µM); with S. aureus J-108, 3.13 µg/mL (≈ 5.22 µM); with E. coli T 7, 0.78 µg/mL (≈ 1.3 µM); in the test on M. morganii IFO3168, 0.39 µg/mL (≈ 0.65 µM); in the test on S. aureus N-241, 3.13 µg/mL (≈ 5.22 µM); against P. aeruginosa IFO3455, 12.5 µg/mL (≈ 20.8 µM). Further, the MIC is 3.13 µg/mL (≈ 5.22 µM) in the test on P. mirabilis IFO3849, ≤ 0.1 µg/mL with S. aureus FDA 209P (setting [2]), ≤ 0.1 µg/mL against S. aureus 308 A-1 and 0.39 µg/mL (≈ 0.65 µM) in the test on C. freundii IFO12681.

With `N#Cc1c(SCC(=N)N)nsc1SCC1=C(C(=O)O)N2C(=O)[C@@H](NC(=O)/C(=N\O)c3csc(N)n3)[C@H]2SC1` [Example 42, 3-[(3-Amidinomethylthio-4-cyanoisothiazol-5-yl)thiomethyl]-7β-[2-(2-aminothiazol-4-yl)-(Z)-2-hydroxyiminoacetamido]-3-cephem-4-carboxylic acid], the MIC is 1.56 µg/mL (≈ 2.55 µM) against S. marcescens IFO12648; ≤ 0.1 µg/mL against E. coli O-111; 0.78 µg/mL (≈ 1.28 µM) against K. pneumoniae DT; 3.13 µg/mL (≈ 5.12 µM) with E. cloacae IFO12937; 0.2 µg/mL (≈ 0.327 µM) in the test with S. aureus 1840 (setting [1]); 0.78 µg/mL (≈ 1.28 µM) against E. coli NIHJ JC-2. The MIC against P. vulgaris IFO3988 was determined as 0.78 µg/mL (≈ 1.28 µM); with S. aureus J-108, 0.78 µg/mL (≈ 1.28 µM); against E. coli T 7, 1.56 µg/mL (≈ 2.55 µM); with M. morganii IFO3168, 0.78 µg/mL (≈ 1.28 µM); against S. aureus N-241, 0.78 µg/mL (≈ 1.28 µM); against P. aeruginosa IFO3455, 12.5 µg/mL (≈ 20.4 µM). Besides, the MIC against P. mirabilis IFO3849 is 3.13 µg/mL (≈ 5.12 µM); in the test on S. aureus FDA 209P (setting [2]), ≤ 0.1 µg/mL; in the test with S. aureus 308 A-1 it was ≤ 0.1 µg/mL; in the test on C. freundii IFO12681, 0.78 µg/mL (≈ 1.28 µM).

With `N=C(N)CSc1nnc(SCC2=C(C(=O)O)N3C(=O)[C@@H](NC(=O)/C(=N\O)c4csc(N)n4)[C@H]3SC2)s1` [Example 39, 3-[(2-Amidinomethylthio-1,3,4-thiadiazol-5-yl)thiomethyl]-7β-[2-(2-aminothiazol-4-yl)-(Z)-2-hydroxyiminoacetamido]-3-cephem-4-carboxylic acid], the MIC against S. marcescens IFO12648 was 0.78 µg/mL (≈ 1.33 µM); in the test on E. coli O-111, ≤ 0.1 µg/mL; in the test on K. pneumoniae DT, ≤ 0.1 µg/mL; against E. cloacae IFO12937 it was 3.13 µg/mL (≈ 5.33 µM); in the test on S. aureus 1840 (setting [1]) it was 0.39 µg/mL (≈ 0.664 µM); in the test with E. coli NIHJ JC-2, 0.39 µg/mL (≈ 0.664 µM). Also, the minimum inhibitory concentration (MIC) in the test on P. vulgaris IFO3988 was determined as 0.78 µg/mL (≈ 1.33 µM); against S. aureus J-108, 1.56 µg/mL (≈ 2.65 µM); with E. coli T 7, 1.56 µg/mL (≈ 2.65 µM); in the test with M. morganii IFO3168, 0.39 µg/mL (≈ 0.664 µM); in the test on S. aureus N-241, 1.56 µg/mL (≈ 2.65 µM); against P. aeruginosa IFO3455, 12.5 µg/mL (≈ 21.3 µM). The MIC in the test with P. mirabilis IFO3849 is 1.56 µg/mL (≈ 2.65 µM); with S. aureus FDA 209P (setting [2]), 0.2 µg/mL (≈ 0.34 µM); against S. aureus 308 A-1 it was 0.2 µg/mL (≈ 0.34 µM); against C. freundii IFO12681, 0.39 µg/mL (≈ 0.664 µM).

Regarding `CO/N=C(\C(=O)N[C@@H]1C(=O)N2C(C(=O)O)=C(CSc3snc(SCC(=N)N)c3C#N)CS[C@H]12)c1csc(N)n1` [Example 15, 3-[(3-Amidinomethylthio-4-cyanoisothiazol-5-yl)thiomethyl]-7β-[2-(2-aminothiazol-4-yl)-(Z)-2-methoxyiminoacetamido]-3-cephem-4-carboxylic acid], the MIC was 0.39 µg/mL (≈ 0.623 µM) against S. marcescens IFO12648; ≤ 0.1 µg/mL against E. coli O-111; 0.2 µg/mL (≈ 0.32 µM) with K. pneumoniae DT; 0.78 µg/mL (≈ 1.25 µM) in the test with E. cloacae IFO12937; 0.39 µg/mL (≈ 0.623 µM) with S. aureus 1840 (Staphylococcus aureus, 1840, 18 h); 0.39 µg/mL (≈ 0.623 µM) against E. coli NIHJ JC-2. Further, the MIC came to 0.2 µg/mL (≈ 0.32 µM) in the test on P. vulgaris IFO3988; 6.25 µg/mL (≈ 9.99 µM) in the test with S. aureus J-108; 0.39 µg/mL (≈ 0.623 µM) against E. coli T 7; 0.2 µg/mL (≈ 0.32 µM) against M. morganii IFO3168; 6.25 µg/mL (≈ 9.99 µM) against S. aureus N-241; 6.25 µg/mL (≈ 9.99 µM) in the test on P. aeruginosa IFO3455. In addition, the MIC in the test on P. mirabilis IFO3849 worked out at 0.78 µg/mL (≈ 1.25 µM); in the test with S. aureus FDA 209P (setting [2]), 0.2 µg/mL (≈ 0.32 µM); against S. aureus 308 A-1, 0.2 µg/mL (≈ 0.32 µM); in the test with C. freundii IFO12681, 0.2 µg/mL (≈ 0.32 µM).
